The values below are quoted from earlier work in US20200038341A1, “METHODS AND COMPOSITIONS FOR TREATING JOINT DISEASE” (Script Essentials, LLC, priority 2015, published 2020).

The conditions of the series: male and female participants over 50 years old, before and after the intervention.

Turning to `CS(C)(=O)=O` [MSM, Methylsulfonylmethane], the “joint function, symptoms of joint degeneration and activities of daily living” value is “improve joint function, relieve symptoms of joint degeneration and improve activities of daily living”.
